# Assay: Inhibition of ADAM17 in human A549 cells assessed as potentiation of gefitinib-mediated inhibition of cell viability by measuring gefitinib IC50 at 40 uM incubated for 1 hr followed by gefitinib addition measured after 72 hrs by CellTiter-Glo assay (Rvb = 8.4 microM)
smiles,measurement,value
O=C1NC[C@@H](Cc2ccc(O)cc2)N(C[C@@H]2CCCN2C[C@@H](Cc2ccc3ccccc3c2)N2C[C@H](Cc3ccc(O)cc3)N(CCC34CC5CC(CC(C5)C3)C4)C(=O)C2=O)C1=O,IC50,1900 nM

# Reference: BindingDB's records for doi:10.1021/acs.jmedchem.5b00354 (Florida Atlantic University, 2015)
